The results in this text go back to patent US8017649B2, “Flavonoid compounds and uses thereof” (Howard Florey Institute of Experimental Physiology and …, priority 2005, dated 2011).

In experiment [1] the test system is superoxide anions generated in rat aorta. Kind of experiment: Superoxide anion production in rat isolated aortic segments (lucigenin chemiluminescence, NADPH). In kind it is cell-based. As for the experimental part:
Superoxide anion production in rat isolated aortic segments was determined using lucigenin chemiluminescence. Aortic rings were prepared as described above and then placed in ice-cold Krebs-(N-[2-Hydroxyethyl]piperazine-N′-[2-ethanesulfonic acid] (HEPES buffer) (composition (mM); NaCl 99.0, KCl 4.7, KH2PO4 1.0, MgSO4·7H2O 1.2, D-glucose 11.0, NaHCO3 25.0, CaCl2·2H2O 2.5, Na-HEPES 20.0). Aortic rings were pre-incubated for 45 minutes at 37° C. with a pH 7.4, in Krebs-HEPES buffer containing diethylthiocarbamic acid (DETCA, 10^−3 M) to inactivate superoxide dismutase and β-nicotinamide adenine dinucleotide phosphate (NADPH, 10^−4 M) as a substrate for NADPH oxidase and either 3′,4′-dihydroxyflavonol (10^−4 M) as a positive control, vehicle, 3-hydroxyflavone-3-hemiadipate, 3′,4′-dihydroxy-3-hemiadipate, 3-hydroxyflavone-3-phosphate (10^−8-10^−4 M). Background photon emission was measured for 12 cycles in a 96-well Optiplate containing 0.3 ml per well of Krebs-HEPES buffer together with lucigenin (5×10^−5 M) and vehicle or flavonoid (10^−8-10^−4 M). Each cycle was counted every one minute. After background reading was completed the incubated aortic rings were transferred to the appropriate wells and photon emission was recounted as described above. The tissue was then placed in a 65° C. oven for 48 hours to allow superoxide production to be normalised to dry tissue weight.
The effects of vehicle, 3′,4′-dihydroxyflavone-3-hemiadipate (21) (DiOHF3HA, 10^−8 M-10^−4 M) and DiOHF (10^−4 M) in the presence and absence of Butyryl cholinesterase (BuCHE), 100, 300 and 1000 U/L) on the level of superoxide anions generated in rat isolated aortic segments in the presence of NADPH was expressed as a percentage of control. The method used was as described above except for the addition of the butyryl cholinesterase.
The effect of vehicle, 3-hydroxyflavone-3-phosphate (10^−8 to 10^−4 M) in the presence or absence of phosphatase (1000 U/L) on the level of superoxide anions generated in rat aorta in the presence of NADPH expressed as a percentage of control was determined as described above for the 3′,4′-dihydroxyflavone-3-hemiadipate.

Experiment [2] concerns rat aorta precontracted with PE. Nature of the experiment: Direct relaxation of PE/U46619-precontracted rat aortic rings. In kind it is cell-based. As for the experimental part:
Following testing of endothelial integrity, rings were repeatedly washed and re-equilibrated for 30 minutes before the addition of PE (10^−8−2×10^−7 M) and 9,11-dideoxy-9α, 11α-epoxymethano-prostaglandin F2α (U46619, 10^−9-10^−8 M) to produce an active force in the range of 40-60% of KPSS-induced contraction. The level of precontraction was matched between the various groups by adjusting the concentrations of PE and U46619. Cumulative concentration-response curves in the range 10^−8-10^−4 M were conducted for 3′,4′-dihydroxyflavonol, 3-hydroxyflavone-3-hemiadipate, 3′,4′-dihydroxy-3-hemiadipate, 3-hydroxyflavone-3-phosphate.
Experiments were conducted in the presence of an esterase, butyryl cholinesterase (BuCHE, 1000 U/L) for the hemiadipate derivates and a phosphatase 1000 U/L) in the case of the phosphate derivatives.
Following testing of endothelial integrity, rings were repeatedly washed and re-equilibrated for 30 minutes before the addition of PE (10^−8−2×10^−7 M) and 9,11-dideoxy-9α, 11α-epoxymethano-prostaglandin F2α (U46619, 10^−9-10^−7 M) to produce an active force in the range of 40-60% of KPSS-induced contraction. Cumulative concentration-response curves in the range 10^−7-10^−4 M were conducted for vehicle, 3′-hydroxyflavonol, F3HA, DiOHF3HA, F3P. Experiments were conducted in the presence and absence of 1000 U/L BuCHE to cleave the adipate in F3HA and DiOHF3HA. In experiments using F3P 1000 U/L phosphatase was used in some experiments to cleave the phosphate.

“Also recorded” adds a separate entry of the source.

As for `O=C(O)CCCCC(=O)Oc1c(-c2ccc(O)c(O)c2)oc2ccccc2c1=O` [DiOHF3HA, 3′,4′-dihydroxyflavone-3-hemiadipate], the “effect on superoxide generation” value in experiment [1] (in the presence of cleaving enzyme (BuCHE for hemiadipates, phosphatase for phosphate, 1000 U/L)) is “concentration dependent inhibition of superoxide levels; also recorded: concentration dependent inhibitory effect; also recorded: inhibit superoxide levels produced by rat aorta”; in experiment [1] (substance alone, no added esterase/phosphatase, up to 10^−4 M, NADPH), “no inhibitory effect on superoxide generation; also recorded: no antioxidant or vascular activity”. Also, the “direct relaxing effect on precontracted vessels” value in experiment [2] (DiOHF3HA plus 1000 U/L BuCHE) is given as “marked effect on vascular tone; also recorded: direct relaxation of pre-contracted rat aortic rings only in the presence of the esterase; also recorded: cause direct relaxation of rat aortic rings”; in experiment [2] (substance alone), “no effect on PE precontracted vessels”.
